A word on the Ki: it is a measure of affinity in units of concentration, obtained from inhibition or displacement.

Structures can show the parent of a compound that is named as a salt. Where two headings read alike, the source gives them in different places. Starred links: 1 amine or outer side, 2 acyl side, 3 side chain; linkers in the order of their positions; H or OH if unused. Non-standard residues stand in square brackets, D forms with d. Residues, ends and D or L forms follow the SMILES beside them. Argψ(COCH2)Gly = N=C(N)NCCC[C@H](N[*:1])C(=O)CCC(=O)[*:2]; X1 = N=C(N)NCCC[C@H](N[*:1])C(=O)CCCCC(=O)[*:2]; Cha = N[C@@H](CC1CCCCC1)C(=O)O; dCha = N[C@H](CC1CCCCC1)C(=O)O; Ava = NCCCCC(=O)O

Experiment [1] deals with T1, thrombin (Homo sapiens, UniProt P00734). Put plainly: Antithrombin activity in vitro, Ki (Table III). The class given is biochemical. The conditions noted are these: first test where two are given; means for 3-5 observations. As to the method: The reactions were initiated by addition of the substrate dissolved in 0.1 M Tris-HCl buffer, pH 7.8 to a preincubated solution of enzyme (0.4 or 0.04 nM) and variable concentrations of inhibitor dissolved in the same buffer. Initial velocities were recorded and Ki values were determined graphically by weighted linear regression of Dixon plots in the case of competitive inhibition, or by the method of Baici (Baici, 1981) for hyperbolic inhibition. Fluorogenic assays were conducted using the same conditions and instrument as above operating in the fluorescence mode in the Ratio (λex=383 nm, λem=455 nm). Fluorescence intensities were calibrated with 7-amino-4-methyl coumarin solution of known concentration. The specificity of the synthetic peptides of the present invention for human α-thrombin may also be determined by comparing their relative inhibitory activities towards both human α-thrombin and bovine α-thrombin and trypsin by comparing Ki values obtained in the amidolytic assay of thrombin activity.

Experiment [2] deals with T1, thrombin. Put plainly: Thrombin time in buffer containing fibrinogen (dTT). It is filed as biochemical. As to conditions: read-out: IC50 dTT (concentration required to double thrombin time). The source says:
*Concentration of compound required to double thrombin time in buffer

In the next experiment the test system is human plasma clotting. Description: Human plasma clotting time. The class given is biochemical. As to conditions: read-out: IC50 plasma clotting time (concentration required to inhibit human plasma clotting time by 50%). As to the method: Thus, for the determination of prothrombin time, 50 μl of reconstituted citrated normal human plasma (Sigma, St-Louis, Mo.) is mixed with 50 μl of thromboplastin solution at 37° C. in a 400 μl cuvette. […] The clotting time is recorded following recalcification with 100 μl of 25 mM CaCl2. The clotting time in the absence of inhibitor was between 19-22 sec.
The same procedure is adopted for the determination of activated partial thromboplastin time except that reconstituted plasma is activated for 3 minutes with cephalin (Sigma, St-Louis, Mo.).
**Concentration of compound required to inhibit human plasma clotting tim

For the next experiment, the target named is human α-thrombin (Homo sapiens, UniProt P00734). Put plainly: Fluorogenic amidolytic assay of thrombin activity, hydrolysis of Tosyl-Gly-Pro-Arg-AMC (Table I).
The test system of experiment [3] is venous thrombosis in vena cava. Put plainly: Venous thrombosis model (balloon catheter induced-injury and stasis in vena cava). The conditions noted are these: rats, i.v. bolus. It is filed as in vivo, rat. The protocol:
Rats ranging in weight from 350 g-450 g were anaesthetized with urethane [50%] at 1500 mg/kg IP. The abdomen and neck were shaved and prepared for surgery.
An incision was made from the base of the sternum to approximately 10-20 mm up from the penile sheath. Another incision was made across the end of the incision (90 degree) to create a flap to be hemostat open. […] Two sutures were loosely looped around the vein(1) and the vein and artery(2), just posterior to the renal veins and arteries. All other branches coming off dorsally from the vena cava were ligated as well as any other veins which may branch of this vein (approximately 4-6 depending on rat). Two more sutures were looped around the vein(1) and artery and vein(2) at the bifurcation of the femoral vein and artery. The right jugular vein was isolated, for later injection of compound.
An incision in the upper interior leg was made and the femoral vein and artery were exposed. The femoral vein was isolated and two sutures were looped around it. One suture was ligated distally, and the other one was pulled tight (proximal) to stop blood flow through the vessel. A very small incision was made into the vein and a 2F fogarty catheter was inserted. The catheter was fed up the femoral vein to the upper sutures (near the renal veins). At this point, inject the compound via the isolated right jugular vein and wait 1 minute. At 1 minute inflate the fogarty catheter with enough saline to distend the vena cava, but still allowing the catheter to be pulled back down to the point of femoral bifurcation without bursting the vessel. This procedure was repeated 3 times. After the third passage, the catheter was removed and as quickly as possible, the femoral incision was ligated with the proximal suture and the suture which was looped around only the vena cava was ligated to stop return flow and allow thrombus growth and the timer was set for 30 minutes.
At this point, the intestines may be placed back in the body cavity, and moistened with saline if any drying has occurred, and skin kept closed with hemostat. […]

As to `CC[C@H](C)[C@H](NC(=O)[C@@H]1CCCN1C(=O)[C@H](CCC(=O)O)NC(=O)[C@H](Cc1ccccc1)NC(=O)[C@H](CC(=O)O)NC(=O)CNC(=O)[C@H](CC(=O)O)NC(=O)[C@H](CC(N)=O)NC(=O)[C@H](Cc1c[nH]cn1)NC(=O)[C@H](CO)NC(=O)[C@H](CCC(N)=O)NC(=O)CCC(=O)[C@H](CCCNC(=N)N)NC(=O)[C@@H]1CCCN1C(=O)[C@@H](CC1CCCCC1)NC(C)=O)C(=O)N1CCC[C@H]1C(=O)N[C@@H](CCC(=O)O)C(=O)N[C@@H](CCC(=O)O)C(=O)N[C@@H](Cc1ccc(O)cc1)C(=O)N[C@@H](CC1CCCCC1)C(=O)N[C@@H](CCC(N)=O)C(=O)O` [P314] (Ac-[dCha]P[Argψ(COCH2)Gly]QSHNDGDFEPIPEEY[Cha]Q-OH), the inhibition constant Ki at thrombin [1] was 0.02 nM. For the same compound, the IC50 at thrombin [2] is 1.3 nM. In the case of “Ac(D-Phe)-Pro-Arg-(CH2)4 (CO)-[NH--CH2 --CH=CH--CH2 --(CO)]2 -DEFPIPY-OH ({Ac-dF-Pro-Arg-(CH2)4CO-NHCH2CH:CHCH2CO-NHCH2CH:CHCH2CO}-DEFPIPY-OH; also: Arg carbonyl bonded to (CH2)4 (non-amide backbone link)) [BCH-2414]”, in the experiment with thrombin [1], the affinity, expressed as Ki, was 1 nM. The IC50 in the experiment with thrombin [2] worked out at 6.23 nM; with human plasma clotting, 10.5 nM. Regarding `CC[C@H](C)[C@H](NC(=O)[C@H](CCC(=O)O)NC(=O)[C@H](CCC(=O)O)NC(=O)[C@H](Cc1ccccc1)NC(=O)[C@H](CC(=O)O)NC(=O)CNC(=O)[C@H](CC(=O)O)NC(=O)[C@H](CC(N)=O)NC(=O)[C@H](Cc1c[nH]cn1)NC(=O)[C@H](CO)NC(=O)[C@H](CCC(N)=O)NC(=O)CCCCC(=O)[C@H](CCCNC(=N)N)NC(=O)[C@@H]1CCCN1C(=O)[C@@H](Cc1ccccc1)NC(C)=O)C(=O)N1CCC[C@H]1C(=O)N[C@@H](CCC(=O)O)C(=O)N[C@@H](CCC(=O)O)C(=O)N[C@@H](Cc1ccc(O)cc1)C(=O)N[C@@H](CC(C)C)C(=O)N[C@@H](CCC(N)=O)C(=O)O` [P103], at human α-thrombin, the affinity, expressed as Ki, was 0.14 ± 0.02 nM. At thrombin [1], `CC[C@H](C)[C@H](NC(=O)[C@@H]1CCCN1C(=O)[C@H](CCC(=O)O)NC(=O)[C@H](Cc1ccccc1)NC(=O)CCCCNC(=O)CCCCNC(=O)CCCCC(=O)[C@H](CCCNC(=N)N)NC(=O)[C@@H]1CCCN1C(=O)[C@H](N)Cc1ccccc1)C(=O)N1CCC[C@H]1C(=O)N[C@@H](CC(C)C)C(=O)O` [BCH-2767, (D-Phe)-Pro-Arg-(CH2)4 (CO)--[NH(CH2)4 CO]2 -FEPIPL-TFA salt] (H-[dF]P[X1][Ava][Ava]FEPIPL-OH) returned an inhibitory constant (Ki) of 40 nM. The IC50 at thrombin [2] stood at 165 nM.

`CC[C@H](C)[C@H](NC(=O)[C@H](CCC(=O)O)NC(=O)[C@H](CCC(=O)O)NC(=O)[C@H](Cc1ccccc1)NC(=O)[C@H](CC(=O)O)NC(=O)CNC(=O)[C@H](CC(=O)O)NC(=O)[C@H](CC(N)=O)NC(=O)[C@H](Cc1c[nH]cn1)NC(=O)[C@H](CO)NC(=O)[C@H](CCC(N)=O)NC(=O)CCCC(=O)[C@H](CCCNC(=N)N)NC(=O)[C@@H]1CCCN1C(=O)[C@@H](Cc1ccccc1)NC(C)=O)C(=O)N1CCC[C@H]1C(=O)N[C@@H](CCC(=O)O)C(=O)N[C@@H](CCC(=O)O)C(=O)N[C@@H](Cc1ccc(O)cc1)C(=O)N[C@@H](CC(C)C)C(=O)N[C@@H](CCC(N)=O)C(=O)O` [P102] came in with a Ki at human α-thrombin of 0.56 nM. Turning to “Hirulog: comparator thrombin inhibitor, BCH number 1724”, the “Minimum Bolus dose needed to achieve patency” value in experiment [3] lay within 0.05 to 0.125 mg/kg.

[D-Phe^45, Ala^47 ]hirudin^45-65 [P73]: the Ki with human α-thrombin (read-out: Human Ki, human α-thrombin mediated hydrolysis of Tosyl-Gly-Pro-Arg-AMC, mean of three determinations ± SEM, ni = not inhibited) amounted to 41 ± 15 nM. “Ac(D-Phe)-thioPro-Arg-(CH2)2 (CO)-QSHNDGDFEEIPEEYLQ-OH [P290]” returned a Ki at thrombin [1] of 0.9 nM. For the same compound, the IC50 in the experiment with human plasma clotting turned out to be 11 nM.

Consider `CC[C@H](C)[C@H](NC(=O)[C@H](CCC(=O)O)NC(=O)[C@H](CCC(=O)O)NC(=O)[C@H](Cc1ccccc1)NC(=O)[C@H](CC(=O)O)NC(=O)CNC(=O)[C@H](CC(=O)O)NC(=O)[C@H](CC(N)=O)NC(=O)[C@H](Cc1c[nH]cn1)NC(=O)[C@H](CO)NC(=O)[C@H](CCC(N)=O)NC(=O)CCC(=O)[C@H](CCCNC(=N)N)NC(=O)[C@@H]1CCCN1C(=O)[C@@H](CC1CCCCC1)NC(C)=O)C(=O)N1CCC[C@H]1C(=O)N[C@@H](CCC(=O)O)C(=O)N[C@@H](CCC(=O)O)C(=O)N[C@@H](Cc1ccc(O)cc1)C(=O)N[C@@H](CC(C)C)C(=O)N[C@@H](CCC(N)=O)C(=O)O` [P311], for which the inhibitory constant (Ki) at thrombin [1] was 0.16 nM. The IC50 on thrombin [2] was determined as 1.35 nM. Taken in the same sequence, the figures for `CC[C@H](C)[C@H](NC(=O)[C@@H]1CCCN1C(=O)[C@H](CCC(=O)O)NC(=O)[C@H](Cc1ccccc1)NC(=O)[C@H](CC(=O)O)NC(=O)CCCCNC(=O)CCCCNC(=O)CCCCC(=O)[C@H](CCCNC(=N)N)NC(=O)[C@@H]1CCCN1C(=O)[C@@H](Cc1ccccc1)NC(C)=O)C(=O)N1CCC[C@H]1C(=O)N[C@@H](CC(C)C)C(=O)O` [BCH-2739, Ac(D-Phe)-Pro-Arg-(CH2)4 (CO)--[NH(CH2)4 (CO)]2 -DFEPIPL-OH] (Ac-[dF]P[X1][Ava][Ava]DFEPIPL-OH) were 4 nM and 14.5 nM. Taken in the same sequence, the figures for `CC[C@H](C)[C@H](NC(=O)[C@@H]1CCCN1C(=O)[C@H](CCC(=O)O)NC(=O)[C@H](Cc1ccccc1)NC(=O)[C@H](CC(=O)O)NC(=O)CCCCNC(=O)CCCCNC(=O)CCCCC(=O)[C@H](CCCNC(=N)N)NC(=O)[C@@H]1CCCN1C(=O)[C@H](N)Cc1ccccc1)C(=O)N1CCC[C@H]1C(=O)N[C@@H](CC(C)C)C(=O)O` [BCH-2763, (D-Phe)-Pro-Arg-(CH2)4 (CO)--[NH(CH2)4 CO]2 -DFEPIPL-TFA salt] (H-[dF]P[X1][Ava][Ava]DFEPIPL-OH) were 0.1 nM and 1.3 nM. `CC[C@H](C)[C@H](NC(=O)[C@H](CCC(=O)O)NC(=O)[C@H](CCC(=O)O)NC(=O)[C@H](Cc1ccccc1)NC(=O)[C@H](CC(=O)O)NC(=O)CNC(=O)[C@H](CC(=O)O)NC(=O)[C@H](CC(N)=O)NC(=O)[C@H](Cc1c[nH]cn1)NC(=O)[C@H](CO)NC(=O)CNC(=O)CC(=O)[C@H](CCCNC(=N)N)NC(=O)[C@@H]1CCCN1C(=O)[C@@H](Cc1ccccc1)NC(C)=O)C(=O)N1CCC[C@H]1C(=O)N[C@@H](CCC(=O)O)C(=O)N[C@@H](CCC(=O)O)C(=O)N[C@@H](Cc1ccc(O)cc1)C(=O)N[C@@H](CC(C)C)C(=O)N[C@@H](CCC(N)=O)C(=O)O` [P109] yielded a Ki at thrombin [1] of 2.25 nM.

`CC[C@H](C)[C@H](NC(=O)[C@@H]1CCCN1C(=O)[C@H](CCC(=O)O)NC(=O)[C@H](Cc1ccccc1)NC(=O)[C@H](CC(=O)O)NC(=O)CNC(=O)[C@H](CC(=O)O)NC(=O)[C@H](CC(N)=O)NC(=O)[C@H](Cc1c[nH]cn1)NC(=O)[C@H](CO)NC(=O)[C@H](CCC(N)=O)NC(=O)CCC(=O)[C@H](CCCNC(=N)N)NC(=O)[C@@H]1CCCN1C(=O)[C@@H](Cc1ccccc1)NC(C)=O)C(=O)N1CCC[C@H]1C(=O)N[C@@H](CCC(=O)O)C(=O)N[C@@H](CCC(=O)O)C(=O)N[C@@H](Cc1ccc(O)cc1)C(=O)N[C@@H](CC1CCCCC1)C(=O)N[C@@H](CCC(N)=O)C(=O)O` [BCH-2408] (Ac-[dF]P[Argψ(COCH2)Gly]QSHNDGDFEPIPEEY[Cha]Q-OH): affinity on thrombin [1] was put at a Ki of 0.075 nM. Moreover, the IC50 on thrombin [2] came to 1 nM.

Values taken from patent US6060451A, “Thrombin inhibitors based on the amino acid sequence of hirudin” (The National Research Council of Canada, priority 1995, dated 2000).
